Columns and labels:
Caspase 3 = target: T1, Caspase 3 (Homo sapiens, UniProt P42574); assay: Caspase 3 activity assay; format: biochemical; settings: 500 nM Ac-DEVD-AMC, 3.2 nM enzyme; pre-incubated 30 minutes at 25° C., 60 minutes at 37° C.; sigmoidal fit
T1 sequence (P42574 29-175 limits assumed): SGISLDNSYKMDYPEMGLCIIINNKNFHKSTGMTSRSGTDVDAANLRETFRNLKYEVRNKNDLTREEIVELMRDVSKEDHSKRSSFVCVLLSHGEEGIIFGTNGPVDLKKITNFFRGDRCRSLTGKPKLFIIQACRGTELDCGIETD
T1 sequence (P42574 176-277 limits assumed): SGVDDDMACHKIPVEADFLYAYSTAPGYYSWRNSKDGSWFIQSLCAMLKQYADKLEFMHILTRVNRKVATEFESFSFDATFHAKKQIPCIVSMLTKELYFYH
Method: Caspase 3 was diluted in Caspase 3 buffer (100 mM Hepes pH 7.5; 10% sucrose; 0.1% CHAPS). Compounds stocks (100 mM) were stored at −20° C. in DMSO. Compounds were tested at the following final concentrations: 100 μM; 33.3 μM; 11.1 μM; 3.7 μM; 1.23 μM; 412 nM; 137 nM; 45.7 nM; 15.2 nM; 5 nM. Reactions were performed as duplicates in Black LJL 96 well plates (HE microplates; Molecular Devices; 20 μl final reaction volume). The substrate concentration for caspase 3 specificity assay was 500 nM (Ac-DEVD-AMC; Promega). The concentration of the enzyme (Caspase 3) in specificity assays was 3.2 nM. The concentrations were determined in order to perform specificity assays under initial velocities at fixed substrate concentration. Compounds were pre-incubated with enzymes for 30 minutes at 25° C. Reactions were initiated by addition of substrate to the plates containing the enzymes (+/− compounds) diluted in assay buffer. Reactions were incubated for 60 minutes at 37° C. Reactions were stopped by adding acetic acid (100 mM final). Readings were performed on a Pherastar Fluorescent Reader (BMG). δ Emission 380 nm; δ Excitation=460 nm. Data (mean values +/− standard deviation) were analyzed as % of control (no compound) and plotted as percentage versus the Log of the compound concentration using GraphPad (Prism). Data were fitted to a sigmoidal model (variable slope).

SENP1 = target: T2, SENP1 (Homo sapiens, UniProt Q9P0U3); assay: SENP1 activity assay; format: biochemical; settings: MBP-SENP1 1.8 nM, 200 nM SUMO-AMC; pre-incubated 30 minutes at 25° C., 60 minutes at 37° C.; sigmoidal fit
T2 construct: made in house; host or cells: E. coli BL21
T2 sequence (Q9P0U3 1-644): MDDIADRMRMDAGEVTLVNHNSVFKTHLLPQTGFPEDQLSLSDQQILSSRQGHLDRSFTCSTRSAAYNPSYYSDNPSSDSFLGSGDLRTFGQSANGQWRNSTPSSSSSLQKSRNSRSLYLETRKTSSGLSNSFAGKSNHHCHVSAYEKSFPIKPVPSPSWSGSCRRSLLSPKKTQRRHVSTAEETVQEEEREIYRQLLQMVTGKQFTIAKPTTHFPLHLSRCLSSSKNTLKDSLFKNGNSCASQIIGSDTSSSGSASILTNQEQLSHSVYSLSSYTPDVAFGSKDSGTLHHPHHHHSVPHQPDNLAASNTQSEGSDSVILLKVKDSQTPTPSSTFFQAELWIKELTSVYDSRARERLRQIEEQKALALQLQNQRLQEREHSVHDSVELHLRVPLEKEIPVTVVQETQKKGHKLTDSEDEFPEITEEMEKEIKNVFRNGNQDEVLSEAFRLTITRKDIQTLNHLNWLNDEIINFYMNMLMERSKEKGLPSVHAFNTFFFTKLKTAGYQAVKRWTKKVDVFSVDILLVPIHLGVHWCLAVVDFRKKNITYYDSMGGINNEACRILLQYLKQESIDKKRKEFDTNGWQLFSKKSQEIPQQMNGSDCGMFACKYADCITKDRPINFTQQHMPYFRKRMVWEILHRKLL
Method: The cDNA encoding SENP1 was obtained by PCR amplification from placenta mRNA. SENP1 cDNA was subcloned by PCR into a bacterial expression vector (pMAL-C2X; New England BioLabs, Inc). The sequence was ascertained by sequencing of the entire open reading frame. pMAL-C2-SENP1 was transformed into BL21 cells and grown in LB-ampicillin medium supplemented with glucose (2 g.l^−1). Fusion protein expression was induced by IPTG (0.5 mM). Bacterial cell lysates were harvested and lyzed in lysis buffer (Tris HCl 20 mM pH 7.4; 1 mM EDTA; 200 mM NaCl; 0.5% Triton X-100; 10 % glycerol; Protease Inhibitor Cocktail) followed by sonication. Proteins were affinity purified on amylose affinity resin (New England BioLabs, Inc). Bound materials were extensively washed in wash buffer (20 mM Tris HCl pH 7.4; 200 mM NaCl; 1 mM EDTA; 0.5% Triton X-100; 10% glycerol) and eluted from the resin in 10 mM maltose-containing wash buffer. Proteins were dialyzed in dialysis buffer (Tris HCl pH 7.6 20 mM; NaCl 200 mM; DTT 1 mM; EDTA 1 mM; 10% Glycerol). Proteins purifications were analyzed on 4-12% NuPAGE (Invitrogen).
MBP-SENP1 was diluted in SENP1 buffer (50 mM Tris HCl; 0.5 mM EDTA; 5 mM DTT; 0.01 % Triton X-100; Bovine Serum Albumin 0.05 mg.ml^−1 pH 7.6). Compounds stocks (100 mM) were stored at −20° C. in DMSO. Compounds were tested at the following final concentrations: 100 μM; 33.3 μM; 11.1 μM; 3.7 μM; 1.23 μM; 412 nM; 137 nM; 45.7 nM; 15.2 nM; 5 nM.
Reactions were performed as duplicates in Black LJL 96 well plates (HE microplates; Molecular Devices; 20 μl final reaction volume). The substrate concentration for SENP1 was 200 nM SUMO-AMC (Chem. Biol., 2003, 10, p. 837-846) (Boston Biochem). The concentration of the enzyme (SENP1) in specificity assays was 1.8 nM. The concentrations were determined in order to perform specificity assays under initial velocities at fixed substrate concentration. Compounds were pre-incubated with enzymes for 30 minutes at 25° C. Reactions were initiated by addition of substrate to the plates containing the enzymes (+/− compounds) diluted in assay buffer. Reactions were incubated for 60 minutes at 37° C. Reactions were stopped by adding acetic acid (100 mM final). Readings were performed on a Pherastar Fluorescent Reader (BMG). λ Emission 380 nm; λ Excitation=460 nm. Data (mean values +/− standard deviation) were analyzed as % of control (no compound) and plotted as percentage versus the Log of the compound concentration using GraphPad (Prism). Data were fitted to a sigmoidal model (variable slope).

Row | IC50 (Caspase 3) | IC50 (SENP1) | Compound
1 | 1.51 µM | > 100 µM | 6-(7)-Chloro-1-methyl-2,3,4,10,10a-pentaaza-cyclopenta[b]fluoren-9-one [Example 3/A]
2 | 5.2 µM | 35.7 µM | CCc1nnc2nc3c(nn12)C(=O)c1cc(OC)c(OC)cc1-3 [Example 5b/A, 1-Ethyl-6,7-dimethoxy-2,3,4,10,10a-pentaaza-cyclopenta[b]fluoren-9-one]
3 | 0.314 µM | 1.28 µM | CCc1nnc2nc3c(nn12)-c1cc(OC)c(OC)cc1C3=O [Example 5b/B, 3-Ethyl-6,7-dimethoxy-1,2,3a,4,10-pentaaza-cyclopenta[b]fluoren-9-one]
4 | 5 µM |  | CC(C)c1nnc2nc3c(nn12)C(=O)c1ccccc1-3 [Example 1l/A, 1-lsopropyl-2,3,4,10,10a-pentaaza-cyclopenta[b]fluoren-9-one]
